According to patent publication US20090203661A1, “Betulinic acid, derivatives and analogs thereof and uses therefor” (priority 2006, published 2009):

Assays:
LNCaP cell xenografts = experiment: LNCaP xenograft in athymic nude mice; format: in vivo
Experimental: Male athymic BALB/c nude mice (age 4-6 weeks) were purchased from Harlan (Indianapolis, Ind.). LNCaP cells (1×106) were implanted with matrigel (BD Biosciences, San Jose, Calif.) subcutaneously into the flank of each mouse. Ten days after cell inoculation, animals were divided into three groups of 10 mice each. The first group received 100 μL vehicle (1% DMSO in corn oil) by oral gavage and the second and third groups of animals received 10 and 20 mg/kg/d doses of BA in vehicle every second day for 14 days (7 doses). The mice were weighed, and tumor areas were measured throughout the study. After 22 days, the animals were sacrificed, final body and tumor weights were determined and selected tissues were further examined by routine hematoxylin and eosin staining and immunohistochemical analysis.
Tissue sections ([…] thick) mounted on poly-Lysine-coated slides were deparaffinized by standard methods. Endogenous peroxidase was blocked by the use of 3% hydrogen peroxide in PBS for 10 min. Antigen retrieval for VEGF and CD31 staining was done for 10 min in 10 mmol/L sodium citrate buffer (pH 6) heated at 95° C. in a steamer followed by cooling for 15 min. […] Hematoxylin and eosin staining was determined as previously described.

[1] = test system: LNCaP prostate cancer cells; experiment: Cell proliferation (cell counting), LNCaP prostate cancer cells; format: cell-based; settings: Homo sapiens, 144 h, 6 days, read-out: 6-day IC50 values for growth inhibition
Experimental: (§1) Human carcinoma cell lines LNCaP (prostate) and SK-MEL2 (melanoma) were obtained from American Type Culture Collection (Manassas, Va.). Cell lines were maintained in RPMI 1640 (Sigma) supplemented with 0.22% sodium bicarbonate, 0.011% sodium pyruvate, 0.45% glucose, 0.24% HEPES, 10% FBS, and 10 mL/L of 100× Antibiotic Antimycotic solution (Sigma). Cells were maintained at 37° C. in the presence of 5% CO2.
Prostate and melanoma cancer cells (2×10^4 per well) were plated in 12-well plates and allowed to attach for 24 hr. The medium was then changed to DMEM:Ham's F-12 medium containing 2.5% charcoal-stripped FBS and either vehicle (DMSO) or different concentrations of the compound were added. […] Each experiment was done in triplicate and results are expressed as means±SE for each set of experiments.

LNCaP cells = experiment: Western blot analysis of protein expression in LNCaP cells; format: cell-based, Human
Experimental: as §1
An equal amount of cell lysate (60 μg/well) was separated by 7.5% to 12% SDS-PAGE, which was followed by immunoblotting onto polyvinylidene difluoride (Bio-Rad, Hercules, Calif.). After blocking in TBST-Blotto (10 mmol/L Tris-HCl, 150 mmol/L NaCl (pH 8.0), 0.05% Triton X-100, 5% nonfat dry milk) for 30 min, the membranes were incubated with primary antibodies overnight at 4° C. and then with horseradish peroxidase-conjugated secondary antibody for 2 hr at room temperature. Proteins were visualized using the chemiluminescence substrate (Perkin-Elmer Life Sciences) for 1 min and exposed to Kodak X-OMAT AR autoradiography film (Eastman Kodak, Rochester, N.Y.).

Panc28 cells = experiment: Apoptosis (PARP cleavage, Western blot) in Panc28 cells; format: cell-based, human; settings: Panc28, 24 hr
Experimental: Induction of KLF4 in HT-29 (FIG. 12A) and SW480 (FIG. 12B) cells. Cells were treated with different concentrations of CDODA isomers or T007 alone or in combination, and KLF4 mRNA levels were determined by real time PCR. […] KLF4 mRNA levels were not induced in SW480 cells by BA derivatives. FIGS. 12C-12D show induction of apoptosis. Panc28 (FIG. 12C) and SW480 (FIG. 12D) cells were treated for 24 hr with betulinic acid and related compounds and whole cell lysates were examined by Western blot analysis.
SW480, HT-29, HCT-15 and Panc-28 (3×10^5) colon cancer cells were seeded in 6-well tissue culture plates in DMEM/Ham's F-12 medium containing 2.5% charcoal-stripped FBS. Protein is extracted from the cells treated either with vehicle or indicated compounds suspended for 24 hr except for caveolin-1 protein which was done for 72 hr. Samples were extracted in high salt buffer [50 mmol/L HEPES, 500 mmol/L NaCl, 1.5 mmol/L MgCl2, 1 mmol/L EGTA, 10% glycerol, and 1% Triton X-100 (pH 7.5), and 5 μL/mL protease inhibitor cocktail (Sigma-Aldrich)]. Samples were incubated at 100° C. for 2 min, separated on either 10% or 12% SDS-PAGE gels and then transferred to polyvinylidene difluoride membrane (PVDF; Bio-Rad, Hercules, Calif.). […]

| SMILES | changes in organ or body weights or histopathology of liver and other tissues (LNCaP cell xenografts; 10 and 20 mg/kg/d, data not shown) | mitotic activity in tumors (LNCaP cell xenografts; treated mice, corn oil group 6-8) | IC50 [1] [nM] | concentrations inducing tumor suppressor gene KLF6 (LNCaP cells) [µM] | treatment time at which lower expression of Sp proteins is first observed (LNCaP cells; 15 μM) [h] | lowest doses at which Sp protein degradation and PARP cleavage are observed (LNCaP cells; 48 or 72 hr) [µM] | concentration inducing downregulation of Sp1, Sp3 and Sp4 proteins (LNCaP cells; 24 hr) [µM] | concentration inducing downregulation of cyclin D1 (LNCaP cells; 24 hr exposure) [µM] | caspase-dependent PARP cleavage (Panc28 cells) |
| --- | --- | --- | --- | --- | --- | --- | --- | --- | --- |
| C=C(C)[C@@H]1CC[C@]2(C(=O)O)CC[C@]3(C)[C@H](CC[C@@H]4[C@@]5(C)CC[C@H](O)C(C)(C)[C@@H]5CC[C@]43C)[C@@H]12 [betulinic acid, Betulinic acid] | no treatment-related changes | 1-2 microfigures/hpf | 1000 to 5000 | 10 to 15 | 12 | 1 to 2.5 | 5 to 10 | ≥ 10 | – |
| CC(C)C1CCC2(C(=O)O)CCC3(C)C(CCC4C5(C)C=C(C#N)C(=O)C(C)(C)C5CCC43C)C12 (stereo not drawn) [CN-BA] | – | – | – | – | – | – | – | – | induced caspase-dependent PARP cleavage |
